Columns and labels:
[1] = system: WM 266-4; assay: Apoptosis, Annexin V-Cy3 Apoptosis Kit; format: cell-based, human; conditions: conc 10 µM
Method: (§1) Methods. Human melanoma cell lines SK-MEL-28 and WM 2664 and mouse melanoma cell line B16 were obtained from the American Tissue Culture Collection (ATCC). Cells were cultured according to recommendations of ATCC (DMEM, 10% FCS, penicillin+streptomycin) and used in experiments after two passages in the laboratory. Cells were grown in 24 well plates, each treatment in triplicates. Cells were plated 16 hours prior treatments started. Peptides were added to the media, and media was changed every day during 7 day experiment. […] Methods. Human melanoma cell lines SK-MEL-28 and WM 266-4 were obtained from the American Tissue Culture Collection (ATCC) and were cultured according to recommendations of ATCC (DMEM, 10% FCS, penicillin+streptomycin). Human keratinocytes were obtained from Clonetics and cultured according to manufacturers protocol. Cells were used in experiments after two passages in the laboratory. Cells were grown in 24 well plates, each treatment in triplicates. Cells were plated 16 hours prior treatments started. Peptides were added to the media, and media was changed every day during 7 day experiment. […] Apoptosis was analyzed using Biovision Annexin V-Cy3 Apoptosis Kit according to manufacturers protocols.

[2] = system: SK-MEL-28; assay: Cell counting after 7 day peptide treatment; format: cell-based, human; conditions: conc 10 µM, start count 10
Method: (§2) The ability to block interaction of MITF, SOX10 and STAT3 with active transcriptional complex and inhibit proliferation and stimulate apoptosis of melanoma cells were tested on human melanoma cell lines SK-MEL-28 and WM 266-4, and mouse melanoma cell line B16. Methods. Human melanoma cell lines SK-MEL-28 and WM 2664 and mouse melanoma cell line B16 were obtained from the American Tissue Culture Collection (ATCC). Cells were cultured according to recommendations of ATCC (DMEM, 10% FCS, penicillin+streptomycin) and used in experiments after two passages in the laboratory. Cells were grown in 24 well plates, each treatment in triplicates. Cells were plated 16 hours prior treatments started. Peptides were added to the media, and media was changed every day during 7 day experiment. CPP concentration was 10 μM For cell counting, cells were trypsinized (0.25% Trypsin, 2 mM EDTA) in Ca^+2, Mg^+2 free PBS. Cells were precipitated and resuspended in 100 μl of PBS, and 5 μl were removed for counting Methods. Human melanoma cell lines SK-MEL-28 and WM 266-4 were obtained from the American Tissue Culture Collection (ATCC) and were cultured according to recommendations of ATCC (DMEM, 10% FCS, penicillin+streptomycin). Human keratinocytes were obtained from Clonetics and cultured according to manufacturers protocol. Cells were used in experiments after two passages in the laboratory. Cells were grown in 24 well plates, each treatment in triplicates. Cells were plated 16 hours prior treatments started. Peptides were added to the media, and media was changed every day during 7 day experiment. CPP concentration was 10 μM. For cell counting, cells were trypsinized (0.25% Trypsin, 2 mM EDTA) in Ca, Mg free PBS. Cells were precipitated and resuspended in 100 μl of PBS, and 5 μl were removed for counting.

[3] = system: B16; assay: Cell counting after 7 day peptide treatment; format: cell-based, mouse; conditions: CPP mimicking peptides, conc 10 µM, start count 10
Method: The ability to block interaction of MITF, SOX10 and STAT3 with active transcriptional complex and inhibit proliferation and stimulate apoptosis of melanoma cells were tested on human melanoma cell lines SK-MEL-28 and WM 266-4, and mouse melanoma cell line B16. Methods. Human melanoma cell lines SK-MEL-28 and WM 2664 and mouse melanoma cell line B16 were obtained from the American Tissue Culture Collection (ATCC). Cells were cultured according to recommendations of ATCC (DMEM, 10% FCS, penicillin+streptomycin) and used in experiments after two passages in the laboratory. Cells were grown in 24 well plates, each treatment in triplicates. Cells were plated 16 hours prior treatments started. Peptides were added to the media, and media was changed every day during 7 day experiment. […] Cells were precipitated and resuspended in 100 μl of PBS, and 5 μl were removed for counting

[4] = system: SK-MEL-28; assay: WST-1 test (mitochondrial activity); format: cell-based, human; conditions: conc 10 µM, untreated = 1
[5] = system: WM 266-4; assay: Cell counting after 7 day peptide treatment; format: cell-based, human; conditions: conc 10 µM, start count 10
Method: as §2, with “CPP concentration was 10 μM For cell counting, cells were trypsinized (0.25% Trypsin, 2 mM EDTA) in Ca^+2, Mg^+2 free PBS.” left out, “CPP concentration was 10 μM.” left out

[6] = system: WM 266-4; assay: WST-1 test (mitochondrial activity); format: cell-based, human; conditions: conc 10 µM, untreated = 1
Method: as §1, with “WST-1 test” for “Apoptosis”, “performed” for “analyzed using Biovision Annexin V-Cy3 Apoptosis Kit according”, “measure mitochondrial activity, which can also be used as a measure of cell number.” for “manufacturers protocols.”

RPKKRKVRRRVKRPMNAFMVWAQAARRKLADQY [SOX10-int1]
Apoptosis 7 d/% ([1]; CPP mimicking peptides): 31%
Cell Count 7 d ([2]; CPP mimicking peptides): 28
Cell Count 7 d [3]: 72
WST-1 7 d ([4]; CPP mimicking peptides): 0.51
Cell Count 7 d ([5]; CPP mimicking peptides): 25
WST-1 7 d ([6]; CPP mimicking peptides): 0.6

RPKKRKVRRRFNINDRIKELGTLIPKSNDPDMRWN [MITF-int1]
Apoptosis 7 d/% ([1]; CPP mimicking peptides): 21%
Cell Count 7 d ([2]; CPP mimicking peptides): 39
Cell Count 7 d [3]: 63
WST-1 7 d ([4]; CPP mimicking peptides): 0.7
Cell Count 7 d ([5]; CPP mimicking peptides): 30
WST-1 7 d ([6]; CPP mimicking peptides): 0.8

TTGGSSPQGLEAKRPKKRKVRRRFNINDRIKELGTLIPKSNDPDMRWN [MITF-int1M]
Apoptosis 7 d/% ([1]; modified peptides): 21%
Cell Count 7 d ([2]; modified (inhibitor/MMP2, MMP9 site) peptides): 42
WST-1 7 d ([4]; modified peptides): 0.81
Cell Count 7 d ([5]; modified peptides): 25
WST-1 7 d ([6]; modified peptides): 0.8

— patent publication US20060014712A1, “Controlled delivery of therapeutic compounds” (CeMines, Inc., priority 2004, published 2006)
